Legend:
[1] = tested on: 4RTau; assay: Fluorescence emission spectra of compounds with and without aggregated 4RTau; type: binding
Experimental: (§1) Emission spectra for compound 1 and compound 1a were collected after incubation of the compounds with and without aggregated amyloidogenic protein at specific excitation wavelengths (450 nm and 488 nm) employed in standard ocular imaging equipment. Amyloidogenic proteins (synthetic aggregated amyloid beta (Aβ), α-synuclein (ASYN), transthyretin (TTR), TAR DNA-binding protein 43 (TDP43), and phosphorylated tau (TAU)) were aggregated in vitro using the following procedure. The amyloidogenic protein was removed from the freezer and allowed to warm to room temperature, then 1 mg of amyloidogenic protein was dissolved in 215 μL of ddH2O for about 10-20 mins at room temperature. To the resulting solution, 2 mL of ddH2O was added to provide a 100 μM stock solution. A 100 μL aliquot was sampled and frozen (non-aggregated sample). The tubes were placed in a thermoshaker at 350 rpm for 3 days. Care was taken to avoid generating bubbles. Protein aggregation was confirmed by measuring binding to Thioflavin T (ThT). Aggregated protein was then portioned into 150 μL aliquots and stored at −80° C. The fluorescent emission spectra were measured as follows to determine binding of synthetic aggregated amyloid beta (Aβ), α-synuclein (ASYN), transthyretin (TTR), TAR DNA-binding protein 43 (TDP43), and phosphorylated tau (TAU) to test compounds described herein. The Shimadzu fluorimeter was turned on and allowed to warm up for ~60 minutes. The test compounds were then removed from the −20° C. freezer and were allowed to warm to room temperature. The 100 μM aggregated Aβ solution was then removed from the −80° C. freezer and also allowed to warm to room temperature. 250 μM solutions of each test compound in DMSO were then prepared. These were then used to prepare 4 μM solutions of each test compound, with and without 5 μM aggregated Aβ in 1×PBS, in triplicates. Using a cuvette, the fluorescent emission spectra were measured for each test compound+Aβ solution, employing a DMSO/PBS solution as a blank. Each sample was tested at an excitation of 450 nm and 488 nm. Fluorescent emission spectra were then collected for each 4 μM test compound solution alone. The resulting data were used to plot intensity vs. wavelength for each emission scan. The fold increase at maximum emission (compound+Aβ/compound) is calculated for each test compound.

[2] = tested on: 3RTau; assay: Fluorescence emission spectra of compounds with and without aggregated 3RTau; type: binding
Experimental: as §1

[3] = target: transthyretin (TTR) (Homo sapiens, UniProt P02766); assay: Fluorescence emission spectra of compounds with and without aggregated transthyretin; type: binding
Experimental: as §1

[4] = tested on: amyloidogenic aggregates (Aβ, ASYN, TTR, TDP43, 3RTau, and 4RTau); assay: In vitro binding to amyloidogenic aggregates, summary statement; conditions: excitation 450 nm or 488 nm
Experimental: Amyloidogenic proteins (synthetic aggregated amyloid beta (Aβ), α-synuclein (ASYN), transthyretin (TTR), TAR DNA-binding protein 43 (TDP43), and phosphorylated tau (TAU)) were aggregated in vitro using the following procedure. The amyloidogenic protein was removed from the freezer and allowed to warm to room temperature, then 1 mg of amyloidogenic protein was dissolved in 215 μL of ddH2O for about 10-20 mins at room temperature. To the resulting solution, 2 mL of ddH2O was added to provide a 100 μM stock solution. A 100 μL aliquot was sampled and frozen (non-aggregated sample). The tubes were placed in a thermoshaker at 350 rpm for 3 days. Care was taken to avoid generating bubbles. Protein aggregation was confirmed by measuring binding to Thioflavin T (ThT). Aggregated protein was then portioned into 150 μL aliquots and stored at −80° C.
The fluorescent emission spectra were measured as follows to determine binding of synthetic aggregated amyloid beta (Aβ), α-synuclein (ASYN), transthyretin (TTR), TAR DNA-binding protein 43 (TDP43), and phosphorylated tau (TAU) to test compounds described herein. […] Using a cuvette, the fluorescent emission spectra were measured for each test compound+Aβ solution, employing a DMSO/PBS solution as a blank. […] The fold increase at maximum emission (compound+Aβ/compound) is calculated for each test compound. […]

[5] = target: α-synuclein (ASYN) (Homo sapiens, UniProt P37840); assay: Fluorescence emission spectra of compounds with and without aggregated α-synuclein; type: binding
Experimental: as §1

[6] = target: TAR DNA-binding protein 43 (TDP43) (Homo sapiens, UniProt Q13148); assay: Fluorescence emission spectra of compounds with and without aggregated TDP43
Experimental: as §1

[7] = target: T1, synthetic aggregated amyloid beta (Aβ) (Homo sapiens, UniProt P05067); assay: Fluorescence emission spectra of compounds with and without aggregated amyloid beta; type: binding; conditions: for Fold Increase at maximum emission (compound+Aβ/compound): 4 μM compound, 5 μM aggregated Aβ in 1×PBS; for Peak emission: aggregated Aβ
T1 construct: synthetic aggregated amyloid beta (Aβ)
Experimental: as §1

T1 sequence (P05067 672-713 limits assumed): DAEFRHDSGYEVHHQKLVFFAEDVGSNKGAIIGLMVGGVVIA
TAR DNA-binding protein 43 (TDP43), sequence (Q13148 whole entry): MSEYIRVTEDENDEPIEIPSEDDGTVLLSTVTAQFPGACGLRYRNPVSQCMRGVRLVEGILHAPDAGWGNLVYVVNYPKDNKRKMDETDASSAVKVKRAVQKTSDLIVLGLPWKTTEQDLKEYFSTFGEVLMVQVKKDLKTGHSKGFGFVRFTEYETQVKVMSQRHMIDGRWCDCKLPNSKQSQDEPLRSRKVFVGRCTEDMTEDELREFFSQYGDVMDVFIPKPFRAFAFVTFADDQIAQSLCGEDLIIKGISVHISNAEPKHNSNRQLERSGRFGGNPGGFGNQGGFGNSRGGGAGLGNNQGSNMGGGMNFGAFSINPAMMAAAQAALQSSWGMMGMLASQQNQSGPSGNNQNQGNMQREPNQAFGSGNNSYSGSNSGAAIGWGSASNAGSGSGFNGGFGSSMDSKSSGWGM

## N#C/C(=C\c1ccc2cc(N3CCCCC3)ccc2c1)C(=O)CCCOCCOCCO [Compound 1, (E)-6-(2-(2-hydroxyethoxy)ethoxy)-3-oxo-2-((6-(piperidin-1-yl)naphthalen-2-yl)methylene)hexanenitrile]
[1]; excitation 450 nm
  Fold Increase at maximum emission: 14.35
[1]; excitation 488 nm
  Fold Increase at maximum emission: 29.25
[2]; excitation 450 nm
  Fold Increase at maximum emission: 68.04
[2]; excitation 488 nm
  Fold Increase at maximum emission: 69.31
[3]; excitation 450 nm
  Fold Increase at maximum emission: 5.18
  Peak emission: 553
[3]; excitation 488 nm
  Fold Increase at maximum emission: 7.21
  Peak emission: 560
[4]
  Binding to all amyloidogenic aggregates tested: successfully bound
[5]; excitation 450 nm
  Fold Increase at maximum emission: 105.50
  Peak emission: 552
[5]; excitation 488 nm
  Fold Increase at maximum emission: 109.97
  Peak emission: 557
[6]; excitation 450 nm
  Fold Increase at maximum emission: 15.33
  Peak emission: 547
[6]; excitation 488 nm
  Fold Increase at maximum emission: 18.32
  Peak emission: 556
[7]; excitation 450 nm
  Fold Increase at maximum emission (compound+Aβ/compound): 10.16
  Peak emission: 559
[7]; excitation 488 nm
  Fold Increase at maximum emission (compound+Aβ/compound): 9.11
  Peak emission: 556

## N#C/C(=C\c1ccc2cc(N3CCCCC3)ccc2c1)C(=O)CCC(O)CO (stereo not drawn) [Compound 1a, (E)-6,7-dihydroxy-3-oxo-2-((6-(piperidin-1-yl)naphthalen-2-yl)methylene)heptanenitrile]
[1]; excitation 450 nm
  Fold Increase at maximum emission: 22.19
[1]; excitation 488 nm
  Fold Increase at maximum emission: 22.48
[2]; excitation 450 nm
  Fold Increase at maximum emission: 84.37
[2]; excitation 488 nm
  Fold Increase at maximum emission: 103.65
[3]; excitation 450 nm
  Fold Increase at maximum emission: 4.67
  Peak emission: 550
[3]; excitation 488 nm
  Fold Increase at maximum emission: 7.35
  Peak emission: 557
[4]
  Binding to all amyloidogenic aggregates tested: successfully bound
[5]; excitation 450 nm
  Fold Increase at maximum emission: 120.92
  Peak emission: 554
[5]; excitation 488 nm
  Fold Increase at maximum emission: 190.64
  Peak emission: 554
[6]; excitation 450 nm
  Fold Increase at maximum emission: 23.23
  Peak emission: 551
[6]; excitation 488 nm
  Fold Increase at maximum emission: 20.40
  Peak emission: 551
[7]; excitation 450 nm
  Fold Increase at maximum emission (compound+Aβ/compound): 9.48
  Peak emission: 554
[7]; excitation 488 nm
  Fold Increase at maximum emission (compound+Aβ/compound): 19.60
  Peak emission: 559

— patent US20260217667A1, “AMYLOID TARGETING AGENTS” (Amydis, Inc., priority 2023, published 2026)
